Reference: patent US20200253917A1 (priority 2017, published 2020)

What was measured:
hair cycle [1] = format: in vivo; conditions: mice shaved at day 50 (Telogen); for pigmentation in response to treatment: topical every other day for 2-3 weeks
Experimental: (§1) FIG. 1A: Mice were shaved at day 50 (Telogen) and topically treated with Phenformin (5 uM) every other day for 2-3 weeks. […] FIG. 1B: Quantification of changes to the hair cycle in treatment and control. Quantification performed across 13 vehicle and 9 Phenformin treated male mice. FIG. 1C: Changes to the thickness of the epidermis, dermis and hypodermis were assessed microscopically and quantified. […] Scale bars for D indicate 25 micrometers.
(§2) FIG. 3A: Mice were shaved at day 50 (Telogen) and topically treated with antimycin A or Rotenone every other day for 2-3 weeks. […] FIG. 3B: Quantification of changes to the hair cycle in treatment and control. Quantification was performed with 13 vehicle treated, 11 Rotenone treated, and 9 Antimycin A treated male animals. FIG. 3C: Changes to the thickness of the epidermis, dermis and hypodermis were assessed microscopically and quantified. FIG. 3D: Immunolocalization was performed to detect evidence of inflammation due to topical application of ETC inhibitors. Both vehicle and ETC inhibitor treated skin was immunostained for phosphor-EGFR ([…]), CD11b (marker of macrophages), and IL6 (Chemokine). Vehicle treated skin from a wounded animal with hyperplastic epidermis was used as a positive control for markers of inflammation. Scale bars indicate 50 micrometers.
To determine whether manipulation of ETC activity could affect HFSC activation, various inhibitors of ETC components were topically applied to mice during a resting phase of the hair cycle. The topical formulation was prepared by suspending the active ingredient in PLO Ultramax Gel (lecithin organogel). At postnatal day 50, the hair follicle is in telogen, a resting phase where the stem cells of the follicle are quiescent until the start of the next hair cycle at day 70-80. Rotenone, Phenformin, and Antimycin A are established inhibitors of […], respectively. Animals were shaved at postnatal day 47 and treated with the indicated compounds or vehicle on the shaved area every 48 hours for the indicated duration. […]

[2] = tested on: hair follicle stem cells (HFSCs); format: in vivo, mice; conditions: topically treated skin, a week after treatment
lactate [3] = format: in vivo, mice; conditions: topical treatment for 48 hours or 10 days
Experimental: FIG. 2A: Mice were treated topically with the indicated ETC inhibitor for 48 hours. Total epidermis was isolated, lysed and subjected to LDH activity assay. Relative LDH activity is presented as the rate of activity over 30 min in two different animals. FIG. 2B: Mice were treated topically with ETC inhibitor for 48 hours (TOP) or 10 days (BOTTOM). Total epidermis was isolated, and metabolites were extracted and subjected to metabolomics. Heatmap indicates relative levels of metabolites related to glycolysis and the TCA cycle.
To determine the effect on cellular metabolism of ETC inhibition by Rotenone, Phenformin and Antimycin A, two measures of metabolic pathways were performed. First, LDH activity was quantified on cells isolated from the epidermis treated with ETC inhibitors for 48 hours (FIG. 2A). Next, metabolomics was employed on sorted HFSCs with and without treatment for either 48 hours or 10 days.

hair follicles = format: in vivo; conditions: backskin of topically treated telogen mice
Experimental: as §1, §2
These findings were also in stark contrast to previous studies showing that transgenic abrogation of the ETC led to hair follicle degeneration.

lactate [4] = format: in vivo; conditions: aged mice, sorted HFSCs at the end of the hair cycle experiment
Source text: (§3) FIGS. 4A and 4B. Treatment with ETC inhibitors can accelerate the hair cycle in aged mice. FIG. 4A: Female mice were shaved at 17 months of age and then treated with vehicle or the indicated ETC inhibitor every other day for up to 30 days. Images taken over time indicate the ETC inhibition promotes a more complete re-growth of hair after shaving in aged mice. Quantification of phenotype emergence from two pairs of animals are presented on the right. Data shown are representative of three independent experiments with 10 mice each.
(§4) As mice age, the hair cycle is known to become protracted such that upon shaving, only portions of the backskin show regrowth of hair within a 1-2 months. Various batches of aged mice (at least 17 months) were treated for 30 days with ETC inhibitors to determine whether this metabolic manipulation could stimulate the hair cycle even in dormant follicles.

hair cycle [5] = format: in vivo; conditions: aged mice (at least 17 months), topical every other day for 30 days
Source text: as §3, §4

Molecule	pigmentation and hair growth in response to treatment (hair cycle [1]; topical Phenformin 5 uM every other day for 2-3 weeks, at 10 and 16 days)	HFSC activation (Sox9 and Ki-67 immunohistochemistry) [2]	lactate levels and glycolytic intermediates (metabolomics) (lactate [3])	H and E staining / histological analysis of the hair cycle (hair follicles)	lactate pool levels (metabolomics) (lactate [4])	hair regrowth across the backskin after shaving (hair cycle [5])	pigmentation in response to treatment (hair cycle [1])
[H]/N=C(/N)N/C(=N/[H])NCCc1ccccc1 [Phenformin]	new pigmentation and then hair growth	HFSCs became activated	increase in lactate levels as well as several other glycolytic intermediates	advancement of the hair cycle	increase in lactate pool levels	more complete hair regrowth across the entire backskin	
C=C(C)[C@H]1Cc2c(ccc3c2O[C@@H]2COc4cc(OC)c(OC)cc4[C@@H]2C3=O)O1 [Rotenone]		HFSCs became activated	increase in lactate levels as well as several other glycolytic intermediates	advancement of the hair cycle	increase in lactate pool levels	more complete hair regrowth across the entire backskin	new pigmentation
Antimycin A		HFSCs became activated	increase in lactate levels as well as several other glycolytic intermediates	advancement of the hair cycle	increase in lactate pool levels	more complete hair regrowth across the entire backskin	new pigmentation
